The results in this text go back to patent US8772499B2, “TRPV3 modulators” (AbbVie Inc., priority 2011, dated 2014).

Where two headings read alike, the source gives them in different places.

For one data set, the target named is T1, human TRPV3 (Homo sapiens, UniProt Q8NET8).
T1 construct: expressed in transfected cells
T1 sequence (Q8NET8 1-790): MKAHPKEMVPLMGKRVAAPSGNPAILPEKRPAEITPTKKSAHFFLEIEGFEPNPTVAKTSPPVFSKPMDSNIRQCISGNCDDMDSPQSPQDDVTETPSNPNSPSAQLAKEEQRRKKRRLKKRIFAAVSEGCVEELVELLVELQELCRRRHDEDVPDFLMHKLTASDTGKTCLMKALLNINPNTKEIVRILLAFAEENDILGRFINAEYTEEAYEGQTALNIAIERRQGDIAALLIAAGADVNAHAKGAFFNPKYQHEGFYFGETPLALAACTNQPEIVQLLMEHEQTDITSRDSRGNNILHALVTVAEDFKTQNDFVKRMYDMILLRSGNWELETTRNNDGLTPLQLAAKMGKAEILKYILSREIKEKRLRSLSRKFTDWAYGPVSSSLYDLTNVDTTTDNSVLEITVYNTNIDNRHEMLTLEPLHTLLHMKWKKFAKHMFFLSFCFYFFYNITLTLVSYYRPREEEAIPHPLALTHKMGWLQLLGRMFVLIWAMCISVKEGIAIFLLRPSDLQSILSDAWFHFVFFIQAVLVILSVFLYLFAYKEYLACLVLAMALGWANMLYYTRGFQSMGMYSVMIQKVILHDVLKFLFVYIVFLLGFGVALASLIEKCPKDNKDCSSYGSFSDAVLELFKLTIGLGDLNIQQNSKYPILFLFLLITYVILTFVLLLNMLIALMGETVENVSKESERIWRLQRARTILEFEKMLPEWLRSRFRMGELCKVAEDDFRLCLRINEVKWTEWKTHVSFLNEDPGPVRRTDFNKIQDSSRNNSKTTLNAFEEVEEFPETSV
The data set can be described thus: In vitro antagonism of recombinant human TRPV3 activation (FLIPR Tetra calcium assay). The format is cell-based. Particulars: HEK293 cells stably expressing human TRPV3, agonist 2-APB at 80 μM. An outline of the steps: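 HEK293 cells stably expressing human TRPV3, loaded with Calcium-4 dye for 90–120 min, received compound in DPBS, then 80 μM 2-APB (EC80) 3 min later. Max-minus-min fluorescence expressed as % of 2-APB response without antagonist; IC50 values mostly averages of n≥2 runs.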

A short description of data set [1]: In vitro human microsomal stability assay. In kind it is in vitro ADME. Particulars: human, microsomes, 0.5 h, 0.5 μM, pH 7.4. An outline of the steps:
(§1)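 NADPH-fortified liver microsome incubations at 37° C. served for both species: Sprague-Dawley rat and human.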

A short description of data set [2]: In vitro rat microsomal stability assay. In kind it is in vitro ADME, rat (Sprague-Dawley). Particulars: Sprague-Dawley, rat, microsomes, 0.5 h, 0.5 μM, pH 7.4. An outline of the steps: as §1
[3] abbreviates: actual measured value shown parenthetically, in most cases average of at least two runs, read-out: IC50.
Setting [4] is: reported range, read-out: IC50 (range class).

As to `OC(c1ccccn1)C1(c2nc3ccc(Cl)cc3s2)CCC1` (centres unmarked) [Example 292, [1-(6-chloro-1,3-benzothiazol-2-yl)cyclobutyl](pyridin-2-yl)methanol], the IC50 on human TRPV3 (setting [3]) was determined as 560 nM. Moreover, the “HUMAN MICROSOMAL STABILITY (% REMAINING AFTER 30 MINUTES)” value in data set [1] amounted to 19%. The “RAT MICROSOMAL STABILITY (% REMAINING AFTER 30 MINUTES)” value in data set [2] worked out at 5.4%.

Turning to `OC(C1CCc2cccnc21)C1(c2ccccc2OC(F)(F)F)CCC1` (stereo not drawn) [Example 194, (syn)-6,7-dihydro-5H-cyclopenta[b]pyridin-7-yl{1-[2-(trifluoromethoxy)-phenyl]cyclobutyl}methanol], the IC50 at human TRPV3 (setting [3]) and on human TRPV3 (setting [4]) was more than 20000 nM each time. Further, in data set [1], the “HUMAN MICROSOMAL STABILITY (% REMAINING AFTER 30 MINUTES)” value is 0.08%. Moreover, the “RAT MICROSOMAL STABILITY (% REMAINING AFTER 30 MINUTES)” value in data set [2] was less than 0.01%.

Regarding `OC(c1ccccn1)C1(c2ccncc2)CCC1` (centres unmarked) [Example 21, pyridin-2-yl(1-pyridin-4-ylcyclobutyl)methanol], the IC50 at human TRPV3 (setting [3]) and on human TRPV3 (setting [4]) was more than 20000 nM throughout. For the same molecule, in data set [1], the “HUMAN MICROSOMAL STABILITY (% REMAINING AFTER 30 MINUTES)” value amounted to 71%. Also, in data set [2], the “RAT MICROSOMAL STABILITY (% REMAINING AFTER 30 MINUTES)” value worked out at 52%.

In the case of `O[C@H](c1ccccn1)C1(c2ccc(C(F)(F)F)c(F)c2)CCC1` [Example 29, (S)-{1-[3-fluoro-4-(trifluoromethyl)phenyl]cyclobutyl}(pyridin-2-yl)-methanol], the IC50 at human TRPV3 (setting [3]) is 2540 nM. In addition, the “HUMAN MICROSOMAL STABILITY (% REMAINING AFTER 30 MINUTES)” value in data set [1] is 5.3%. Moreover, the “RAT MICROSOMAL STABILITY (% REMAINING AFTER 30 MINUTES)” value in data set [2] came out at 45%.

With `OC(c1ccccn1)C1(c2cccc(OC(F)(F)F)c2)CCCO1` (single isomer, unassigned) [Example 92, (anti)-pyridin-2-yl{2-[3-(trifluoromethoxy)phenyl]tetrahydrofuran-2-yl}methanol], the IC50 on human TRPV3 (setting [3]) came out at 100 nM. The “HUMAN MICROSOMAL STABILITY (% REMAINING AFTER 30 MINUTES)” value in data set [1] was found to be 2.7%. In addition, the “RAT MICROSOMAL STABILITY (% REMAINING AFTER 30 MINUTES)” value in data set [2] was determined as 0.23%.

Take `OC(c1ccccn1)C1(c2ccc(OC(F)(F)F)cc2)CC(F)(F)C1` (centres unmarked) [Example 112, {3,3-difluoro-1-[4-(trifluoromethoxy)phenyl]cyclobutyl}(pyridin-2-yl)-methanol]: the IC50 on human TRPV3 (setting [3]) came to 300 nM. Moreover, in data set [1], the “HUMAN MICROSOMAL STABILITY (% REMAINING AFTER 30 MINUTES)” value is 75%. For the same molecule, in data set [2], the “RAT MICROSOMAL STABILITY (% REMAINING AFTER 30 MINUTES)” value was determined as 75%.

For the molecule `CC1(O)CC(c2ccnc(C(F)(F)F)c2)(C(O)c2ccccn2)C1` (single isomer, unassigned) [Example 307], the IC50 on human TRPV3 (setting [3]) was determined as 8230 nM. Further, the “HUMAN MICROSOMAL STABILITY (% REMAINING AFTER 30 MINUTES)” value in data set [1] came out at 73%. Moreover, the “RAT MICROSOMAL STABILITY (% REMAINING AFTER 30 MINUTES)” value in data set [2] was more than 85%.

As for `COC1(OC)CC(c2ccc(OC(F)(F)F)cc2)(C(O)c2ccccn2)C1` (centres unmarked) [Example 129, {3,3-dimethoxy-1-[4-(trifluoromethoxy)phenyl]cyclobutyl}(pyridin-2-yl)-methanol], the IC50 on human TRPV3 (setting [3]) turned out to be 330 nM. Also, in data set [1], the “HUMAN MICROSOMAL STABILITY (% REMAINING AFTER 30 MINUTES)” value worked out at 46%. For the same molecule, in data set [2], the “RAT MICROSOMAL STABILITY (% REMAINING AFTER 30 MINUTES)” value worked out at 0.01%.

On to `OC(c1ccccn1)C1(c2ccc(OC(F)(F)F)cc2)CCOCC1` (centres unmarked) [Example 67, pyridin-2-yl{4-[4-(trifluoromethoxy)phenyl]tetrahydro-2H-pyran-4-yl}-methanol], for which the IC50 at human TRPV3 (setting [3]) amounted to 2600 nM. In addition, the “HUMAN MICROSOMAL STABILITY (% REMAINING AFTER 30 MINUTES)” value in data set [1] worked out at 58%. Besides, the “RAT MICROSOMAL STABILITY (% REMAINING AFTER 30 MINUTES)” value in data set [2] worked out at 47%.

`OC(c1ccccn1)C1(c2cccc(Oc3ccccc3)c2)CCC1` (centres unmarked) [Example 23, [1-(3-phenoxyphenyl)cyclobutyl](pyridin-2-yl)methanol]: the IC50 at human TRPV3 (setting [3]) is 930 nM. Moreover, in data set [1], the “HUMAN MICROSOMAL STABILITY (% REMAINING AFTER 30 MINUTES)” value stood at 0.12%. The “RAT MICROSOMAL STABILITY (% REMAINING AFTER 30 MINUTES)” value in data set [2] came out at 0.69%.

With `OC(c1ccccn1)C1(c2cccc(C(F)(F)F)c2)CCCO1` (single isomer, unassigned) [Example 107, (syn)-pyridin-2-yl{2-[3-(trifluoromethyl)phenyl]tetrahydrofuran-2-yl}-methanol], on human TRPV3 (setting [3]), the IC50 is 2930 nM. Besides, the “HUMAN MICROSOMAL STABILITY (% REMAINING AFTER 30 MINUTES)” value in data set [1] worked out at 31%. Further, in data set [2], the “RAT MICROSOMAL STABILITY (% REMAINING AFTER 30 MINUTES)” value is listed as 0.23%.

For `O=C1CC(c2cc(C(F)(F)F)ccn2)([C@@H](O)c2ccccn2)C1` [Example 278, 3-[(R)-hydroxy(pyridin-2-yl)methyl]-3-[4-(trifluoromethyl)pyridin-2-yl]-cyclobutanone], the IC50 on human TRPV3 (setting [3]) was found to be 6600 nM. In addition, the “HUMAN MICROSOMAL STABILITY (% REMAINING AFTER 30 MINUTES)” value in data set [1] is on record as 83%. In data set [2], the “RAT MICROSOMAL STABILITY (% REMAINING AFTER 30 MINUTES)” value is reported as more than 85%.

Take `OC(c1ccccn1)C1(c2cccc(Cl)c2)CCCO1` (single isomer, unassigned) [Example 104, (anti)-[2-(3-chlorophenyl)tetrahydrofuran-2-yl](pyridin-2-yl)methanol]: on human TRPV3 (setting [3]), the IC50 amounted to 280 nM. Further, the “HUMAN MICROSOMAL STABILITY (% REMAINING AFTER 30 MINUTES)” value in data set [1] worked out at 15%. Moreover, the “RAT MICROSOMAL STABILITY (% REMAINING AFTER 30 MINUTES)” value in data set [2] was determined as 0.42%.

On to `OC(c1ccccn1)C1(c2ccc(C(F)(F)F)cc2)CCNCC1` (centres unmarked) [Example 147, pyridin-2-yl{4-[4-(trifluoromethyl)phenyl]piperidin-4-yl}methanol], for which the IC50 at human TRPV3 (setting [3]) and at human TRPV3 (setting [4]) was more than 20000 nM each time. Moreover, the “HUMAN MICROSOMAL STABILITY (% REMAINING AFTER 30 MINUTES)” value in data set [1] is given as more than 85%. For the same molecule, the “RAT MICROSOMAL STABILITY (% REMAINING AFTER 30 MINUTES)” value in data set [2] stood at 79%.

Take `OC(c1ccccn1)C1(c2ccc(F)c(F)c2)CCCO1` (single isomer, unassigned) [Example 108, (anti)-[2-(3,4-difluorophenyl)tetrahydrofuran-2-yl](pyridin-2-yl)methanol]: the IC50 on human TRPV3 (setting [3]) is 610 nM. The “HUMAN MICROSOMAL STABILITY (% REMAINING AFTER 30 MINUTES)” value in data set [1] turned out to be 13%. Also, the “RAT MICROSOMAL STABILITY (% REMAINING AFTER 30 MINUTES)” value in data set [2] came out at 4.9%.

On to `O=C1CC(c2cccc(OC(F)(F)F)c2)(C(O)c2ccccn2)C1` (centres unmarked) [Example 237, 3-[hydroxy(pyridin-2-yl)methyl]-3-[3-(trifluoromethoxy)phenyl]-cyclobutanone], for which the concentration for half-maximal inhibition (IC50) on human TRPV3 (setting [3]) turned out to be 3660 nM. In addition, the “HUMAN MICROSOMAL STABILITY (% REMAINING AFTER 30 MINUTES)” value in data set [1] was 51%. Moreover, the “RAT MICROSOMAL STABILITY (% REMAINING AFTER 30 MINUTES)” value in data set [2] stood at 50%.

Take `NC1CCCC1C(O)C1(c2ccc(C(F)(F)F)cc2)CCC1` (centres unmarked) [Example 205, (2-aminocyclopentyl) {1-[4-(trifluoromethyl)phenyl]cyclobutyl}methanol]: the IC50 on human TRPV3 (setting [3]) came out at 3870 nM. Also, the “HUMAN MICROSOMAL STABILITY (% REMAINING AFTER 30 MINUTES)” value in data set [1] is reported as more than 85%. For the same molecule, the “RAT MICROSOMAL STABILITY (% REMAINING AFTER 30 MINUTES)” value in data set [2] was more than 85%.

Consider `O=C1CC(c2cc(C(F)(F)F)ccn2)(C(O)c2ccccn2)C1` (centres unmarked) [Example 293, 3-[hydroxy(pyridin-2-yl)methyl]-3-[4-(trifluoromethyl)pyridin-2-yl]-cyclobutanone], for which the IC50 at human TRPV3 (setting [3]) and on human TRPV3 (setting [4]) was more than 20000 nM throughout. Also, the “HUMAN MICROSOMAL STABILITY (% REMAINING AFTER 30 MINUTES)” value in data set [1] was 78%. Moreover, the “RAT MICROSOMAL STABILITY (% REMAINING AFTER 30 MINUTES)” value in data set [2] is recorded as 69%.

Regarding `OC(C1CCc2cccnc21)C1(c2ccc(F)c(F)c2)CCC1` (stereo not drawn) [Example 172, (syn)-[1-(3,4-difluorophenyl)cyclobutyl][6,7-dihydro-5H-cyclopenta[b]-pyridin-7-yl]methanol], the IC50 on human TRPV3 (setting [3]) and on human TRPV3 (setting [4]) was more than 20000 nM each time. Besides, the “HUMAN MICROSOMAL STABILITY (% REMAINING AFTER 30 MINUTES)” value in data set [1] is on record as 2.4%. Also, the “RAT MICROSOMAL STABILITY (% REMAINING AFTER 30 MINUTES)” value in data set [2] was less than 0.01%.
